Laboratory results as given in article PMC7408095 (Pharmaceutics, 2020).
Like-named read-outs stand apart in the source and are kept apart here.

Columns and labels:
[1] = Plasma pharmacokinetics of metformin in rats (HPLC-UV)
Excerpt: (§1) The Phoenix® WinNonlin version 8.0 software (Certara, Princeton, New Jersey, USA) was used for the calculation of the following pharmacokinetic parameters: • The elimination rate constant (ke); • The absorption rate constant (ka); • The elimination half-life (t1/2); • The maximum plasma concentration (Cmax); • The time to reach the Cmax (tmax); • The total area under the concentration–time curve (AUC0-t and AUC0--∞); • The apparent plasma drug clearance (Cl/F); • The apparent volume of distribution (Vd/F).

[2] = in vivo; settings: male, Wistar, rat, plasma, po, 100 mg/kg
Excerpt: as §1

[3] = cited from earlier work
[4] = Adverse effects of the doses used in healthy rats; type: in vivo
[5] = rat, in vivo, po, 100 mg/kg
Excerpt: as §1

[6] = rat, in vivo, po, 20 mg/kg
Description: (§2) The concentration of each of the working solutions was 10 μg/mL. The sample preparation involved liquid-liquid extraction. […] The analytes were separated in a Zorbax Plus C18 column (100 × 2.1 mm; 3.5 μm) (Agilent Technologies, Santa Clara, California, USA) at a column temperature of 40 °C. The mobile phase was a mixture of de-ionized water (A) and acetonitrile (B), both containing 0.1% (v/v) formic acid. […] The mobile phase flow was set to 0.3 mL/min. The eluent from the HPLC column was introduced directly to the MS interface, using electrospray ionization in the positive ion mode. The MS parameters were as follows: interface temperature, 350 °C; DL temperature, 250 °C; heat block temperature, 400 °C; nebulizing gas flow, 2 L/min; and drying gas flow, 15 L/min. The electrospray needle voltage was 3.5 kV. The specific transitions for the analytes were monitored using the multiple reaction monitoring (MRM) mode.

[7] = Plasma pharmacokinetics of atorvastatin, 2-OH AT and 4-OH AT in rats (UPLC-MS/MS); settings: for AUC0-t / AUC0-∞ / Cmax / metabolite/atorvastatin Cmax ratio: rat plasma
Description: as §2

[8] = rat, in vivo, 20 mg/kg; cited from earlier work
[9] = Plasma pharmacokinetics of sorafenib and sorafenib N-oxide in rats (HPLC-UV); settings: for AUC0-t / AUC(0-inf) / Cmax / Vd/F / k el / half-life: male, Wistar, rat, plasma, po, 100 mg/kg; for AUC0-t / AUC(0-inf) / Cmax / Vd/F / k el / ka: rat plasma; for AUC(0-inf): AUC0-∞; for k el: kel; for half-life: t1/2, rat plasma;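 on all read-outs here: pharmacokinetic parameters were computed with Phoenix WinNonlin 8.0 software from the plasma concentration–time curve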
Excerpt: as §1

[10] = cited from earlier work; remark: listed apart in the source
[11] = rat plasma, single oral sorafenib 100 mg/kg + metformin 100 mg/kg b.w. (IISOR+MET group)
[12] = single oral atorvastatin 20 mg/kg b.w. alone (IVAT group)
[13] = single oral sorafenib 100 mg/kg + atorvastatin 20 mg/kg b.w. (ISOR+AT group)
[14] = rats, ISOR+AT group vs IVAT group
[15] = single oral sorafenib 100 mg/kg + metformin 100 mg/kg b.w. (IISOR+MET group)
[16] = single oral sorafenib 100 mg/kg b.w. alone (IIISOR group)
[17] = rats, IISOR+MET group vs IIISOR group
[18] = rats, ISOR+AT group vs IIISOR group

For CN(C)C(=N)N=C(N)N [metformin], which Cl/F ([1]; rat plasma, single oral metformin 100 mg/kg b.w. alone (VMET group)) is on record?
The Cl/F was 6.31 ± 1.48 (23.5) L/h.

And the AUC0-t [1, 11]?
Its AUC0-t is 3.64 ± 1.15 (31.6) µg × h/mL.

What about the “AUC0-∞” value [1, 11] of the same compound?
The value was 10.88 ± 4.50 (41.4) µg × h/mL.

And the Cl/F [1, 11]?
The Cl/F was 5.50 ± 3.08 (56.0) L/h.

And the Cmax [1, 11]?
The Cmax was 0.46 ± 0.26 (56.5) µg/mL.

What about the MRT0-t [1, 11] of the same compound?
Its MRT0-t is 8.65 ± 2.22 (25.7) h.

What about the Vd/F [1, 11] of the same compound?
The Vd/F was 297.89 ± 133.23 (44.7) L.

And the k el [1, 11]?
The k el was 0.03 ± 0.04 (133.3) h^−1.

And the tmax [1, 11]?
The tmax was 1.88 ± 0.23 (12.2) h.

What about the “increase in tmax with co-administered sorafenib” value ([1]; rats, IISOR+MET group vs VMET group) of the same compound?
Its value is 71.39%.

What about the AUC0-t [2] of the same compound?
The AUC0-t was 3830 ± 1230 ng·h/mL.

What about the AUC(0-inf) [2] of the same compound?
The AUC(0-inf) was 7900 ± 1930 ng·h/mL.

What about the Cmax [2] of the same compound?
Its Cmax is 500 ± 290 ng/mL.

What about the MRT last [2] of the same compound?
Its MRT last is 9.81 ± 1.27 h.

And the Vd/F [2]?
Its Vd/F is 228 ± 91 L.

What about the k el [2] of the same compound?
Its k el is 8.33e-06 s⁻¹.

And the tmax [2]?
Its tmax is 1.09 ± 0.57 h.

What about the plasma protein-bound fraction [3] of the same compound?
The plasma protein-bound fraction was “negligible”.

What about the adverse effects ([4]; 100 mg/kg single oral dose) of the same compound?
Its adverse effects is “did not cause any adverse effects”.

Which AUC0-t [5] does the source give for CNC(=O)c1cc(Oc2ccc(NC(=O)Nc3ccc(Cl)c(C(F)(F)F)c3)cc2)cc[n+]1[O-] [Sorafenib N-oxide, sorafenib N-oxide] here?
Its AUC0-t is 4.10 ± 1.56 (38.1) µg × h/mL.

What about the “AUC0-∞” value [5] of the same compound?
Its value is 8.61 ± 2.19 (25.4) µg × h/mL.

And the k el [5]?
Its k el is 0.016 ± 0.010 (60.9) h^−1.

What about the tmax [5] of the same compound?
The tmax was 16.38 ± 8.21 (50.1) h.

Which results are given for CC(C)c1c(C(=O)Nc2ccc(O)cc2)c(-c2ccccc2)c(-c2ccc(F)cc2)n1CC[C@@H](O)C[C@@H](O)CC(=O)O [4-OH AT, 4-hydroxy atorvastatin]?
AUC0-t [6]: 14.63 ± 5.57 (38.1) ng × h/mL; AUC0-∞ [6]: 19.22 ± 7.06 (36.7) ng × h/mL

Which AUC0-t [7, 12] does the source give for CC(C)c1c(C(=O)Nc2ccccc2O)c(-c2ccccc2)c(-c2ccc(F)cc2)n1CCC(O)CC(O)CC(=O)O (stereo not drawn) [2-OH AT, 2-hydroxy atorvastatin] here?
Its AUC0-t is 617.32 ± 277.54 (45.0) ng × h/mL.

What about the “AUC0-∞” value [7, 12] of the same compound?
Its value is 695.68 ± 297.16 (42.7) ng × h/mL.

What about the Cmax [7, 12] of the same compound?
Its Cmax is 175.20 ± 116.62 (66.6) ng/mL.

And the “metabolite/atorvastatin Cmax ratio” value [7, 12]?
Its value is 2.35 ± 1.12 (47.6) ng/mL.

What about the AUC0-t [7, 13] of the same compound?
Its AUC0-t is 958.91 ± 342.91 (35.8) ng × h/mL.

And the “AUC0-∞” value [7, 13]?
Its value is 993.97 ± 343.87 (34.6) ng × h/mL.

What about the Cmax [7, 13] of the same compound?
The Cmax was 185.82 ± 90.16 (48.5) ng/mL.

What about the “metabolite/atorvastatin Cmax ratio” value [7, 13] of the same compound?
Its value is 2.43 ± 1.06 (43.6) ng/mL.

And the “change in the 2-OH AT/atorvastatin ratio for AUC0-t” value [7, 14]?
The value was −19.4%.

And the “change in the 2-OH AT/atorvastatin ratio for AUC0-∞” value [7, 14]?
The value was −26.0%.

What about the “increase in AUC caused by sorafenib (abstract)” value [7, 14] of the same compound?
Its value is 55.3%.

Which safety [8] does the source give for CC(C)c1c(C(=O)Nc2ccccc2)c(-c2ccccc2)c(-c2ccc(F)cc2)n1CC[C@@H](O)C[C@@H](O)CC(=O)O [Atorvastatin, atorvastatin] here?
The safety was “safe”.

And the adverse effects ([4]; 20 mg/kg single oral dose)?
Its adverse effects is “did not cause any adverse effects”.

With CNC(=O)c1cc(Oc2ccc(NC(=O)Nc3ccc(Cl)c(C(F)(F)F)c3)cc2)ccn1 [Sorafenib, sorafenib] as the compound, how does the AUC0-t [9, 13] read?
The AUC0-t was 105000 ± 18900 ng·h/mL.

What about the AUC0-t [9, 15] of the same compound?
The AUC0-t was 35200 ± 8360 ng·h/mL.

And the AUC0-t [9, 16]?
The AUC0-t was 62800 ± 16100 ng·h/mL.

And the AUC(0-inf) [9, 13]?
Its AUC(0-inf) is 106000 ± 19300 ng·h/mL.

What about the AUC(0-inf) [9, 15] of the same compound?
Its AUC(0-inf) is 36800 ± 8960 ng·h/mL.

What about the Cmax [9, 13] of the same compound?
The Cmax was 3660 ± 1210 ng/mL.

And the Cmax [9, 15]?
Its Cmax is 1270 ± 380 ng/mL.

And the Vd/F [9, 13]?
The Vd/F was 9.98 ± 2.48 L.

What about the Vd/F [9, 15] of the same compound?
Its Vd/F is 34.1 ± 18.7 L.

And the Vd/F [9, 16]?
Its Vd/F is 25.3 ± 11.6 L.

And the k el [9, 13]?
The k el was 1.39e-05 s⁻¹.

And the k el [9, 15]?
Its k el is 1.39e-05 s⁻¹.

What about the k el [9, 16] of the same compound?
Its k el is 9.72e-06 s⁻¹.

And the half-life [9, 13]?
Its half-life is 14.7 ± 3.17 h.

What about the half-life [9, 15] of the same compound?
Its half-life is 16.3 ± 3.72 h.

And the half-life [9, 16]?
Its half-life is 21.9 ± 7.79 h.

And the ka [9, 13]?
Its ka is 0.20 ± 0.11 (53.2) h^−1.

What about the ka [9, 15] of the same compound?
The ka was 0.35 ± 0.23 (66.8) h^−1.

And the ka [9, 16]?
Its ka is 0.74 ± 0.31 (42.5) h^−1.

What about the “decrease in AUC0-t in the presence of metformin” value [9, 17] of the same compound?
Its value is 44.0%.

And the “decrease in AUC0-∞ in the presence of metformin” value [9, 17]?
Its value is 45.1%.

What about the “decrease in ka in the presence of metformin” value [9, 17] of the same compound?
The value was 0.5 fold.

What about the “increase in clearance in the presence of metformin” value [9, 17] of the same compound?
The value was 76.3%.

And the “decrease in ka with co-administered atorvastatin” value [9, 18]?
Its value is 73.0%.

What about the “decrease in t1/2 with co-administered atorvastatin” value [9, 18] of the same compound?
Its value is 0.3 fold.

And the “increase in AUC0-t with co-administered atorvastatin” value [9, 18]?
Its value is 66.6%.

And the “increase in AUC0-∞ with co-administered atorvastatin” value [9, 18]?
Its value is 58.7%.

And the “increase in AUC with co-administered atorvastatin (abstract)” value [9, 18]?
The value was 66.6%.

And the “increase in Cmax with co-administered atorvastatin” value [9, 18]?
Its value is 134.6%.

What about the “increase in kel with co-administered atorvastatin” value [9, 18] of the same compound?
Its value is 42.9%.

And the “increase in tmax with co-administered atorvastatin” value [9, 18]?
Its value is 116.9%.

And the “protein-bound form in plasma” value [3]?
The value was 99.5%.

And the “decrease in sorafenib absorption with a high-fat diet” value ([10]; clinically important interaction)?
Its value is 30%.

And the “share in the systemic circulation” value ([10]; sorafenib unchanged or as sorafenib N-oxide)?
The value was 70−85%.
